Measurements reported in publication PMC5577603, “Marine Inspired 2-(5-Halo-1H-indol-3-yl)-N,N-dimethylethanamines as Modulators of Serotonin Receptors: An Example Illustrating the Power of Bromine as Part of the Uniquely Marine Chemical Space” (Marine Drugs, 2017).
Read-outs that look alike come from different tables or passages of the source.

How the values were obtained:
Test in all cases: receptor binding assay (NIMH PDSP)
5-HT1A = molecular target: T1, 5-HT1A (Homo sapiens, UniProt P08908)
T1 construct: gene HTR1A; cloned receptor, NIMH PDSP panel
T1 sequence (P08908 1-422): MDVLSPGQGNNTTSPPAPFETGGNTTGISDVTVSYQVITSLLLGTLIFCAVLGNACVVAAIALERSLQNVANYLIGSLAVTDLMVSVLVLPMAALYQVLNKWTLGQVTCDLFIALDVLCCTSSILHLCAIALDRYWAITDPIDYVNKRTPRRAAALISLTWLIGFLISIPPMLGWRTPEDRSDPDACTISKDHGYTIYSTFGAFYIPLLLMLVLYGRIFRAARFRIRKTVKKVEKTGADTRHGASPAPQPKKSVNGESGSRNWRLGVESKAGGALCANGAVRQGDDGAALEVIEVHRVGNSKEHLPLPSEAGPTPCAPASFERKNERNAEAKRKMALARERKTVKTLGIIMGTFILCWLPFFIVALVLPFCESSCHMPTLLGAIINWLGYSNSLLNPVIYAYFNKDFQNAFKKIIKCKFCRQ
From the text: receptor binding assay (NIMH PDSP) on 5-HT1A

5-HT7 = molecular target: T2, 5-HT7 (Homo sapiens, UniProt P34969)
T2 construct: gene HTR7; cloned receptor, NIMH PDSP panel
T2 sequence (P34969 whole entry): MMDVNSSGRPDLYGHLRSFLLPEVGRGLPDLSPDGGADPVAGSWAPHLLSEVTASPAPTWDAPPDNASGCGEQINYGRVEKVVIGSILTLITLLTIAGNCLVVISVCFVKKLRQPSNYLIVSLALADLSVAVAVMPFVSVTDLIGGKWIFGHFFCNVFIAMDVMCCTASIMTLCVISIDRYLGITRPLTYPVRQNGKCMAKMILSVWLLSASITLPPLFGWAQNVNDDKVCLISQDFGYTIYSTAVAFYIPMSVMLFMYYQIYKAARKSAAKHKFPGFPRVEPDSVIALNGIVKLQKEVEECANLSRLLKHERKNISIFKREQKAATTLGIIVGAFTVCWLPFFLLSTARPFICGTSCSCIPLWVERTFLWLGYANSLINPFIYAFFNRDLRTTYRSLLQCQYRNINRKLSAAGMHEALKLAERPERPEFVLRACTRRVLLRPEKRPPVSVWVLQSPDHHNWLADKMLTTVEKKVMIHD
From the text: receptor binding assay (NIMH PDSP) on 5-HT7

5-HT1B = molecular target: T3, 5-HT1B (Homo sapiens, UniProt P28222)
T3 construct: gene HTR1B; cloned receptor, NIMH PDSP panel
T3 sequence (P28222 whole entry): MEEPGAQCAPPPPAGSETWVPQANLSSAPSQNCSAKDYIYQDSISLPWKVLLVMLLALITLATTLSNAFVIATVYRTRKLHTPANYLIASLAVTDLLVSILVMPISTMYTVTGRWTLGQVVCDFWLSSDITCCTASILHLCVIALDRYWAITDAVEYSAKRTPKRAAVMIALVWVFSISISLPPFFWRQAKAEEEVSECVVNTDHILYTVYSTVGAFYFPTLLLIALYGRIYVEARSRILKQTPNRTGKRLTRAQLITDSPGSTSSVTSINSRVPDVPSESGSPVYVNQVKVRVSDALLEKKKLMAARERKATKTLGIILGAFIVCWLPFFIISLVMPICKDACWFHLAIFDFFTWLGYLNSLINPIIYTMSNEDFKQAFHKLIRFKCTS
From the text: receptor binding assay (NIMH PDSP) on 5-HT1B

5-HT5A = molecular target: T4, 5-HT5A (Homo sapiens, UniProt P47898)
T4 construct: gene HTR5A; cloned receptor, NIMH PDSP panel
T4 sequence (P47898 whole entry): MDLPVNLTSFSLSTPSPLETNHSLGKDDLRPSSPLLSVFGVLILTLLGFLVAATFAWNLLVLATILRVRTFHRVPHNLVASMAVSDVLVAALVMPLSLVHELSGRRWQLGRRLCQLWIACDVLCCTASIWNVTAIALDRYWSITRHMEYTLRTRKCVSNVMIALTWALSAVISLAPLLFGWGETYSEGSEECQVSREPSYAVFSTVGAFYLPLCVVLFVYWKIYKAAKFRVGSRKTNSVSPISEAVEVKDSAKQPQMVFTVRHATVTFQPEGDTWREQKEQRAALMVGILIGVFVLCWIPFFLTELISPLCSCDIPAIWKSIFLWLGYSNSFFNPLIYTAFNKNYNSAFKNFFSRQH
From the text: receptor binding assay (NIMH PDSP) on 5-HT5A

5-HT1D = molecular target: T5, 5-HT1D (Homo sapiens, UniProt P28221)
T5 construct: gene HTR1D; cloned receptor, NIMH PDSP panel
T5 sequence (P28221 whole entry): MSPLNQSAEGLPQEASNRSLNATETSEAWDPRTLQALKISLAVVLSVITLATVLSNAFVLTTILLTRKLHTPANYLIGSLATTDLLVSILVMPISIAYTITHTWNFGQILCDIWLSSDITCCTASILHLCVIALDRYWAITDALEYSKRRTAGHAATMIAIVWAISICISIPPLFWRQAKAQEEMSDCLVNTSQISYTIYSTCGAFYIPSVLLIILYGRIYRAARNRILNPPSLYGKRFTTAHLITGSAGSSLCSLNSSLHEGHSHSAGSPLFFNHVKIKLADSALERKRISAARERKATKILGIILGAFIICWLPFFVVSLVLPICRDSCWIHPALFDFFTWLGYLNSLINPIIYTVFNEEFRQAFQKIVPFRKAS
From the text: receptor binding assay (NIMH PDSP) on 5-HT1D

5-HT1E = molecular target: T6, 5-HT1E (Homo sapiens, UniProt P28566)
T6 construct: gene HTR1E; cloned receptor, NIMH PDSP panel
T6 sequence (P28566 whole entry): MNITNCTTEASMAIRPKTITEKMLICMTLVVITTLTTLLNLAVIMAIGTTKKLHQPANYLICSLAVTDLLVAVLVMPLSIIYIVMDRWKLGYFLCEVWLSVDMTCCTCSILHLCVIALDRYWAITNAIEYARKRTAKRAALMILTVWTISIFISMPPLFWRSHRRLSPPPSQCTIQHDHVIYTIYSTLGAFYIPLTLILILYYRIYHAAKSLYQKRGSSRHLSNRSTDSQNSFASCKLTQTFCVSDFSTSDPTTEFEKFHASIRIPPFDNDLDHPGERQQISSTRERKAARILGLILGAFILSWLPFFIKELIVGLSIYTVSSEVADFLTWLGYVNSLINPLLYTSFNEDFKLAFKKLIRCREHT
From the text: receptor binding assay (NIMH PDSP) on 5-HT1E

5-HT6 = molecular target: T7, 5-HT6 (Homo sapiens, UniProt P50406)
T7 construct: gene HTR6; cloned receptor, NIMH PDSP panel
T7 sequence (P50406 whole entry): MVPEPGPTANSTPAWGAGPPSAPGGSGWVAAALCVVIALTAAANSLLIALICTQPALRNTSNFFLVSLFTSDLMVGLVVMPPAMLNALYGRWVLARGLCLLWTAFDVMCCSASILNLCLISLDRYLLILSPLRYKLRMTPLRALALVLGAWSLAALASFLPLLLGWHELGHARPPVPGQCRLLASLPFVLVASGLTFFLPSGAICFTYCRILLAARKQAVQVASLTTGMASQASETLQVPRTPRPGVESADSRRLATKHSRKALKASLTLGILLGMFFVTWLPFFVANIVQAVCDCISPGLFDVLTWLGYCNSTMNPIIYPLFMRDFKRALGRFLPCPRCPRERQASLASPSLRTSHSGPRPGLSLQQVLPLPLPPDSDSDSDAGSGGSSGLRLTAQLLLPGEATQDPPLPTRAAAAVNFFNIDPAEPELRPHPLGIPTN
From the text: receptor binding assay (NIMH PDSP) on 5-HT6

5-HT2B = molecular target: T8, 5-HT2B (Homo sapiens, UniProt P41595)
T8 construct: gene HTR2B; cloned receptor, NIMH PDSP panel
T8 sequence (P41595 whole entry): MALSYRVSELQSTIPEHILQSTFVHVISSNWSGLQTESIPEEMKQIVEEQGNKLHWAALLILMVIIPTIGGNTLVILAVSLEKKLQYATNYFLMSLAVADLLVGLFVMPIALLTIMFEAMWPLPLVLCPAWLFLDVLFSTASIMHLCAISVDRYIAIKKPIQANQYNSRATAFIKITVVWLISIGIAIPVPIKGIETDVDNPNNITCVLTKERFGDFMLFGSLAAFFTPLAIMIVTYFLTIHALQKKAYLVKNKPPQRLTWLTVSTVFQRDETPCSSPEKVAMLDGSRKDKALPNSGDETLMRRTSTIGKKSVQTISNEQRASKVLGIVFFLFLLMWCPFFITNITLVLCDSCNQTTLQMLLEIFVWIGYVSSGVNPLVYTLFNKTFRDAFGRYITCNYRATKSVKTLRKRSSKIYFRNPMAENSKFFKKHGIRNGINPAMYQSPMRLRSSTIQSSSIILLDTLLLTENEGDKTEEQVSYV

| Compound | Ki (5-HT1A; read-out: Compound 2a Ki) [nM] | Ki (5-HT7) [nM] | Ki (5-HT1B) [nM] | Ki (5-HT5A) [nM] | Ki (5-HT1D) [nM] | Ki (5-HT1E) [nM] | Ki (5-HT6) [nM] | Ki (5-HT2B) [nM] | Ki (5-HT1A) [nM] |
| --- | --- | --- | --- | --- | --- | --- | --- | --- | --- |
| 2-(1H-indol-3-yl)-N,N-dimethylethanamine [2a] | 110 ± 17 |  |  |  |  |  |  |  |  |
| CN(C)CCc1c[nH]c2ccccc12 [2a, 2-(1H-indol-3-yl)-N,N-dimethylethanamine] |  | 77 ± 16 | 66 ± 9 | > 10000 | 29.3 ± 3.7 | > 10000 | 189 ± 32.5 |  |  |
| CN(C)CCc1c[nH]c2ccc(I)cc12 [2e, 2-(5-iodo-1H-indol-3-yl)-N,N-dimethylethanamine] |  | 116 ± 13 | 43 ± 5 | 1250 | 8.5 ± 1.38 | 310 ± 33 | 198 ± 20 | 98 ± 4 | 130 ± 16 |
